The values that follow come from patent US20140256660A1, “ANTIBIOTIC CONJUGATES LINKED WITH STEROID DRUGS” (Allergan, Inc., priority 2013, published 2014).

This data set has as its system human recombinant carboxylesterases. Briefly: In vitro metabolic stability (rate of metabolite formation) in human recombinant carboxylesterases. The following applies: human recombinant carboxylesterases 0.1 mg/mL, 1 μM test compound, pH 6.0, 37° C. It counts as in vitro ADME. On the procedure:
Dutch Belted rabbits were euthanized with an overdose of sodium pentobarbital. The corneas were collected and homogenized in ice-cold potassium chloride solution (pH=7.4). The homogenate was centrifuged at 755×g for 30 min at 4° C. and aliquots of the supernatant were stored at or below −70° C. until metabolism experiments were conducted. Prior to storing the homogenates an aliquot was removed for determination of protein concentrations by calculating the 260 nm absorbance using a spectrophotometer. Human recombinant carboxylesterases were purchased from a commercial vendor (BD Gentest™, Bedford, Mass.)
All metabolic stability experiments were performed in triplicate in 96-well plate format. The final incubation mixture contained 1 μM test compound, 0.3 mg/mL corneal protein homogenate or 0.1 mg/mL human recombinant carboxylesterase mixture in a final volume of 0.5 mL 0.1 M potassium phosphate buffer (pH=6.0). The final percentage of solvent in the incubation was less than 1.0% to prevent inhibition of enzymatic activity. Following a pre-incubation at 37° C., test article (i.e. ester linked hybrids) was added to initiate the reaction. At designated time points (typically less than 60 minutes to capture the linear range of metabolite formation), 0.05 mL aliquots were removed from the incubation mixtures using a clean pipet tip and immediately placed in organic solvent to stop any esterase activity.
Hydrolysis of the metabolites was confirmed to be due to esterase activity and not chemical lability. The samples were analyzed by liquid chromatography with mass spectrometry (LC-MS/MS) detection to determine the metabolite concentrations resulting from the metabolism of ester linked hybrids. Internal standards were used to compensate for variability from sample processing, chromatographic elution, mass spectrometer response and ion suppression by matrix components.

As for `COc1c(N2C[C@@H]3CCCN[C@@H]3C2)c(F)cc2c(=O)c(C(=O)OC(C)OC(=O)OCC(=O)[C@]3(O)CC[C@@H]4[C@H]5CCC6=CC(=O)C=C[C@@]6(C)C5[C@H](O)C[C@]43C)cn(C3CC3)c12` (relative stereo) [Compound 65, 1-[({2-[(8R,10S,11R,13R,14R,17S)-11,17-dihydroxy-10,13-dimethyl-3-oxo-6,7,8,9,10,11,12,13,14,15,16,17-dodecahydro-3H-cyclopenta[a]phenanthren-17-yl]-2-oxoethoxy}carbonyl)oxy]ethyl rel-1-cyclopropyl-6-fluoro-8-methoxy-7-[(4aS,7aS)-octahydro-6H-pyrrolo[3,4-b]pyridin-6-yl]-4-oxo-1,4-dihydroquinoline-3-carboxylate], the “Rate of formation Metabolite 2 (Moxifloxacin)” value came to 482 ± 72 nM/min/mg and the “Rate of formation Metabolite 1 (Prednisolone)” value worked out at 364 ± 27 nM/min/mg.
Turning to `COc1c(N2CCN(C(=O)OCOC(=O)CCC(=O)N[C@@H](C(=O)OCC(=O)[C@]3(O)CCC4C5CCC6=CC(=O)C=C[C@@]6(C)C5[C@H](O)C[C@]43C)C(C)C)C(C)C2)c(F)cc2c(=O)c(C(=O)O)cn(C3CC3)c12` (relative stereo) [Compound 29, rel-1-cyclopropyl-7-{4-[(10R)-14-[(10S,11R,13R,17S)-11,17-dihydroxy-10,13-dimethyl-3-oxo-6,7,8,9,10,11,12,13,14,15,16,17-dodecahydro-3H-cyclopenta[a]phenanthren-17-yl]-5,8,11,14-tetraoxo-10-(propan-2-yl)-2,4,12-trioxa-9-azatetradecan-1-oyl]-3-methylpiperazin-1-yl}-6-fluoro-8-methoxy-4-oxo-1,4-dihydroquinoline-3-carboxylic acid], the “Rate of formation Metabolite 2 (Gatifloxacin)” value came out at 36.5 ± 1.1 nM/min/mg and the “Rate of formation Metabolite 1 (Prednisolone)” value was 17.3 ± 0.1 nM/min/mg.
As to `COc1c(N2C[C@H]3CCCN[C@H]3C2)c(F)cc2c(=O)c(C(=O)OCCCOC(=O)c3ccc(C(=O)OCC(=O)[C@@]4(O)[C@H](C)C[C@H]5[C@@H]6CCC7=CC(=O)C=C[C@]7(C)[C@@]6(F)[C@@H](O)C[C@@]54C)cc3)cn(C3CC3)c12` (relative stereo) [Compound 54, 3-[({1-cyclopropyl-6-fluoro-8-methoxy-7-[(4aR,7aR)-octahydro-6H-pyrrolo[3,4-b]pyridin-6-yl]-4-oxo-1,4-dihydroquinolin-3-yl}carbonyl)oxy]propyl 2-[(8S,9R,10S,11S,13S,14S,16R,17R)-9-fluoro-11,17-dihydroxy-10,13,16-trimethyl-3-oxo-6,7,8,9,10,11,12,13,14,15,16,17-dodecahydro-3H-cyclopenta[a]phenanthren-17-yl]-2-oxoethyl rel-benzene-1,4-dicarboxylate], the “Rate of formation Metabolite 1 (Dexamethasone)” value came to 67.8 ± 1.78 nM/min/mg and the “Rate of formation Metabolite 2 (Moxifloxacin)” value was 0.717 ± 0.625 nM/min/mg.
Take `COc1c(N2CCN(C(=O)OCOC(=O)CCC(=O)OCC(=O)[C@@]3(O)[C@H](C)CC4C5CCC6=CC(=O)C=C[C@]6(C)[C@@]5(F)[C@@H](O)C[C@@]43C)C(C)C2)c(F)cc2c(=O)c(C(=O)O)cn(C3CC3)c12` (relative stereo) [Compound 11, rel-1-cyclopropyl-6-fluoro-7-[4-({[(4-{2-[(9R,10S,11S,13S,16R,17R)-9-fluoro-11,17-dihydroxy-10,13,16-trimethyl-3-oxo-6,7,8,9,10,11,12,13,14,15,16,17-dodecahydro-3H-cyclopenta[a]phenanthren-17-yl]-2-oxoethoxy}-4-oxobutanoyl)oxy]methoxy}carbonyl)-3-methylpiperazin-1-yl]-8-methoxy-4-oxo-1,4-dihydroquinoline-3-carboxylic acid]: the “Rate of formation Metabolite 1 (Dexamethasone)” value was 44.5 ± 2.62 nM/min/mg and the “Rate of formation Metabolite 2 (Gatifloxacin)” value was determined as 56 ± 2.1 nM/min/mg.
Turning to `C[C@H]1C[C@H]2[C@@H]3CCC4=CC(=O)C=C[C@]4(C)[C@@]3(F)[C@@H](O)C[C@]2(C)[C@@]1(O)C(=O)COC(=O)CCC(=O)OC[C@@H](NC(=O)C(Cl)Cl)[C@H](O)c1ccc([N+](=O)[O-])cc1` (relative stereo) [Compound 73, (2R,3R)-2-[(dichloroacetyl)amino]-3-hydroxy-3-(4-nitrophenyl)propyl 2-[(8S,9R,10S,11S,13S,14S,16S,17R)-9-fluoro-11,17-dihydroxy-10,13,16-trimethyl-3-oxo-6,7,8,9,10,11,12,13,14,15,16,17-dodecahydro-3H-cyclopenta[a]phenanthren-17-yl]-2-oxoethyl rel-butanedioate], the “Rate of formation Metabolite 1 (Betamethasone)” value (metabolite Betamethasone) amounted to 1440 ± 120 nM/min/mg. Also, the “Rate of formation Metabolite 2 (Chloramphenicol)” value (metabolite Chloramphenicol) came to 107 ± 13 nM/min/mg.
